Experimental findings from patent US9469659B2, “Compositions and methods for improving glucose uptake” (Board of Supervisors of Louisiana State University and …, priority 2012, dated 2016) are described below.

Data set [1] has as its system 3T3-L1 pre adipocytes. Description: Cell toxicity of compounds at various doses. Format: cell-based. As for the experimental part:
For the following screens, compounds 1-5 were dissolved in DMSO. 3T3-L1 pre adipocytes were first exposed to different concentrations (5 μM, 10 μM, 20 μM, 50 μM and 100 μM) of the compounds to test for toxicity compared with DMSO control exposure. Exposure to other concentrations was followed until Day 5. Compound 2 was the most toxic at 20 μM on Day 5.

The subject of data set [2] is 3T3-L1 cells. Nature of the data set: Glucose uptake under basal and insulin stimulated conditions (FIG. 2). Format: cell-based. The note with it: 24 hours exposure. The procedure: Next, glucose uptake by 3T3-L1 cells exposed to compounds 1-5 was determined at 5 μM concentration. Cells were exposed to compounds 1-5 for 24 hours and exposure to DMSO was used as the control group. 2-Deoxy glucose (2-DG) uptake was determined using the analog compounds without serum starving the cells prior to determining glucose uptake. As indicated in FIG. 1 glucose uptake in 3T3-L1 pre-adipocytes was determined by exposing cells to compounds 1-5 for 24 hours without serum starvation. All compounds show significant increase (p<0.05) in glucose uptake under basal conditions compared with the DMSO treated control cells. To confirm these observations glucose uptake was examined under basal and insulin stimulated conditions with cells exposed to compounds 1-5 for 24 hours.

[3] abbreviates: 5 μM, Day 1, 3T3-L1 pre adipocytes.
Setting [4] is: 5 μM, Day 2, 3T3-L1 pre adipocytes.
The mark [5] stands for this setting: 5 μM, Day 3, 3T3-L1 pre adipocytes.
The mark [6] stands for this setting: 5 μM, Day 4, 3T3-L1 pre adipocytes.
[7] abbreviates: 5 μM, Day 5, 3T3-L1 pre adipocytes.
Setting [8] is: 10 μM, Day 1, 3T3-L1 pre adipocytes.
Setting [9] is: 10 μM, Day 2, 3T3-L1 pre adipocytes.
The mark [10] stands for this setting: 10 μM, Day 3, 3T3-L1 pre adipocytes.
Where [11] appears, read: 10 μM, Day 4, 3T3-L1 pre adipocytes.
Setting [12] is: 10 μM, Day 5, 3T3-L1 pre adipocytes.
[13] abbreviates: 20 μM, Day 1, 3T3-L1 pre adipocytes.
The mark [14] stands for this setting: 20 μM, Day 2, 3T3-L1 pre adipocytes.
Where [15] appears, read: 20 μM, Day 3, 3T3-L1 pre adipocytes.
The mark [16] stands for this setting: 20 μM, Day 4, 3T3-L1 pre adipocytes.
[17] abbreviates: 20 μM, Day 5, 3T3-L1 pre adipocytes.
[18] abbreviates: 50 μM, Day 1, 3T3-L1 pre adipocytes.
The mark [19] stands for this setting: 50 μM, Day 2, 3T3-L1 pre adipocytes.
Where [20] appears, read: 100 μM, Day 1, 3T3-L1 pre adipocytes.
[21] abbreviates: 100 μM, Day 2, 3T3-L1 pre adipocytes.

Regarding `CC1(C)OB(c2ccc(NC(C#N)c3cc(-c4ccc(F)cc4)on3)cc2)OC1(C)C` (stereo not drawn) [Compound 1], the Cell toxicity is 0% in data set [1] (setting [3]); 0-5% in data set [1] (setting [4]); 0-5% in data set [1] (setting [5]); 0-5% in data set [1] (setting [6]); “≧5%” in data set [1] (setting [7]); 5-10% in data set [1] (setting [8]). Also, the Cell toxicity in data set [1] (setting [9]) is recorded as 5-10%; in data set [1] (setting [10]) it was 5-10%; in data set [1] (setting [11]) it was 5-10%; in data set [1] (setting [12]), 5-10%; in data set [1] (setting [13]), 5-10%; in data set [1] (setting [14]), “≧10%”. Moreover, the Cell toxicity result in data set [1] (setting [15]) is on record as “≧10%”; in data set [1] (setting [16]) it was 10-15%; in data set [1] (setting [17]) it was 10-15%; in data set [1] (setting [18]), 30-40%; in data set [1] (setting [19]), 90-95%; in data set [1] (setting [20]), over 90%. Also, in data set [1] (setting [21]), the Cell toxicity is listed as 95-100%.

For `CC1(C)OB(c2ccc(NC(C#N)c3cc(-c4ccccc4)on3)cc2)OC1(C)C` (stereo not drawn) [Compound 2], the Cell toxicity in data set [1] (setting [3]) is on record as 0%; in data set [1] (setting [4]), 0-5%; in data set [1] (setting [5]), 0-5%; in data set [1] (setting [6]), 10-20%; in data set [1] (setting [7]) it was 10-20%; in data set [1] (setting [8]), 5-10%. Moreover, the Cell toxicity in data set [1] (setting [9]) is listed as over 10%; in data set [1] (setting [10]), “≧10%”; in data set [1] (setting [11]), 30-40%; in data set [1] (setting [12]), “≧40%”; in data set [1] (setting [13]), over 10%; in data set [1] (setting [14]), 20-30%. The Cell toxicity in data set [1] (setting [15]) is 40-50%; in data set [1] (setting [16]), 60-70%; in data set [1] (setting [17]), 70-80%; in data set [1] (setting [18]) it was 30-40%; in data set [1] (setting [19]), 95-100%; in data set [1] (setting [20]), over 90%. Further, the Cell toxicity in data set [1] (setting [21]) is 95-100%. Moreover, the “Toxicity (in words, ranking among compounds)” value in data set [1] (setting [17]) is “most toxic”.

Regarding `Cc1cc(C(C#N)Nc2ccc(B3OC(C)(C)C(C)(C)O3)cc2)no1` (stereo not drawn) [Compound 3], the Cell toxicity is on record as 0% in data set [1] (setting [3]); 0-5% in data set [1] (setting [4]); 0-5% in data set [1] (setting [5]); 0-5% in data set [1] (setting [6]); 0-5% in data set [1] (setting [7]); 0-5% in data set [1] (setting [8]). Also, the Cell toxicity in data set [1] (setting [9]) is listed as over 5%; in data set [1] (setting [10]) it was “≧10%”; in data set [1] (setting [11]), “≧10%”; in data set [1] (setting [12]), “≧10%”; in data set [1] (setting [13]) it was 5-10%; in data set [1] (setting [14]), 15-20%. For the same compound, the Cell toxicity is reported as over 20% in data set [1] (setting [15]); 20-30% in data set [1] (setting [16]); “≧30%” in data set [1] (setting [17]); 15-20% in data set [1] (setting [18]); 90-95% in data set [1] (setting [19]); 60-70% in data set [1] (setting [20]). Also, the Cell toxicity in data set [1] (setting [21]) is on record as 95-100%. Also, the “Glucose uptake under basal and insulin stimulated conditions” value (“Glucose uptake” for short) in data set [2] is given as “most significant increase”.

As to `N#CC(Nc1ccc([B-](F)(F)F)cc1)c1cc(-c2ccc(F)cc2)on1` (stereo not drawn) [Compound 4], the Cell toxicity was 0% in data set [1] (setting [3]); 0-5% in data set [1] (setting [4]); 0-5% in data set [1] (setting [5]); 0-5% in data set [1] (setting [6]); 0-5% in data set [1] (setting [7]); 0-5% in data set [1] (setting [8]). For the same compound, the Cell toxicity is over 5% in data set [1] (setting [9]); “≧10%” in data set [1] (setting [10]); “≧10%” in data set [1] (setting [11]); “≧10%” in data set [1] (setting [12]); 5-10% in data set [1] (setting [13]); 10-15% in data set [1] (setting [14]). Also, the Cell toxicity entry in data set [1] (setting [15]) was “≧15%”; in data set [1] (setting [16]), “≧15%”; in data set [1] (setting [17]), “≧15%”; in data set [1] (setting [18]), 30-40%; in data set [1] (setting [19]), 90-95%; in data set [1] (setting [20]), over 90%. Further, the Cell toxicity in data set [1] (setting [21]) is given as 95-100%. In data set [2], the “Glucose uptake” value was “most significant increase”.

With `N#CC(Nc1ccc([B-](F)(F)F)cc1)c1ccco1` (stereo not drawn) [Compound 5], the Cell toxicity is reported as 0% in data set [1] (setting [3]); 0-5% in data set [1] (setting [4]); 0-5% in data set [1] (setting [5]); 0-5% in data set [1] (setting [6]); 0-5% in data set [1] (setting [7]); 0-5% in data set [1] (setting [8]). Also, the Cell toxicity is over 5% in data set [1] (setting [9]); “≧10%” in data set [1] (setting [10]); “≧10%” in data set [1] (setting [11]); “≧10%” in data set [1] (setting [12]); 5-10% in data set [1] (setting [13]); 10-15% in data set [1] (setting [14]). The Cell toxicity is given as 10-15% in data set [1] (setting [15]); 10-15% in data set [1] (setting [16]); 10-15% in data set [1] (setting [17]); over 15% in data set [1] (setting [18]); 90-95% in data set [1] (setting [19]); over 90% in data set [1] (setting [20]). Further, the Cell toxicity in data set [1] (setting [21]) is 95-100%. The “Glucose uptake” value in data set [2] is “most significant increase”.
